{
  "source": "paper PMC9645375",
  "about": "“Pattern enrichment analysis for phage selection of stapled peptide ligands” (Chemical Science, 2022)",
  "key": {"[1]": {"target": "T1, HDM2 (human double minute 2) (Homo sapiens, UniProt Q00987)", "T1 construct": "His-tag; made in house", "T1 sequence (Q00987 whole entry)": "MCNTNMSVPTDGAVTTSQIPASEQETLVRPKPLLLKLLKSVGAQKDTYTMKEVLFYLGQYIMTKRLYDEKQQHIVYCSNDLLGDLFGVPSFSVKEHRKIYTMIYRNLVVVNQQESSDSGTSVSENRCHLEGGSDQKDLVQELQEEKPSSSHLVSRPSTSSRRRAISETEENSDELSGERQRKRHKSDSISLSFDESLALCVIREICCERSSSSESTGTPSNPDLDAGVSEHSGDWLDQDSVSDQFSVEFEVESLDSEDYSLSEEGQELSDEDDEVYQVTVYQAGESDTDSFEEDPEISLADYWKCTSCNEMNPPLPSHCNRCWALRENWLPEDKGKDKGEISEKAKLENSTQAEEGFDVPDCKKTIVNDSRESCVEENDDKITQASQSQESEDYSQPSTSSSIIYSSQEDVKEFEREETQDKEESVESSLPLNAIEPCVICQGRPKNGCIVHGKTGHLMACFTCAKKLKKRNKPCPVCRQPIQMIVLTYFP", "experiment": "Fluorescence polarisation competition binding assay against FAM-ATSP-3848", "settings": "for inhibition of FAM-ATSP-3848 binding to HDM2 (in words): fluorescence polarisation, 100 nM HDM2, 10 nM FAM-ATSP-3848", "experimental": "Fig. 4 Position–amino acid pattern enrichment analysis of the HDM2-R3 pool. (a) Pattern enrichment score calculation. For both sequence data (FASTQ), the abundance of each position–amino acid pattern was determined. Enrichment values were calculated as the ratio of abundance in the selected sample to that in the control sample. (b) Venn diagram showing pattern coverage (white, whole space of three-window patterns; blue, patterns found in Amp-R3 dataset; red, patterns found in HDM2-R3 dataset). (c) Scattering plot indicating the abundance of control (x-axis) and HDM2-R3 selected sample (y-axis). Red circles are patterns with log2(ratio) values greater than 8. (d) Position–amino acid patterns ranked in the top 20. (e) WebLogo depicting enriched sequences determined from enriched patterns with log2(ratio) values greater than 8. (f) Sequences and helical wheel diagrams of HDM2-p13 and HDM2-opt peptides. Highly enriched residues are coloured red. (g) Fluorescence polarisation assay for competitive inhibition. Peptides (50 nM to 50 μM) were mixed with 100 nM HDM2 and 10 nM FAM-ATSP-3848. […] Error bar represents SD (n = 3).\nCompetition binding assay\nThe peptides (50 nM–50 µM) was mixed with 100 nM of HDM2 and 10 nM of FAM-AT P S-3848 in HBS buffer (10 mM HEPES, 150 mM NaCl, pH 7.5). The fluorescence polarization was measured by ARVO MX plate […]\nvalues of peptide inhibitors were calculated by nonlinear regression analysis using Prism (GraphPad Software).\nPull-down competition binding assay\nRecombinant SARS-CoV-2 Spike RBD His Biotin Protein (R&D Systems, BT10500) at 4 µg/mL concentration in HBS buffer was incubated with 3 mg/mL of DynaBeads M-280 (ThermoFisher) for 2 hours at 4 °C. […]\nAfter one hour incubation at room temperature, the beads were rinsed three times with HBS-T ( 2 0 0 µL/well). […] The chemiluminescent bands were detected using LuminoGraphI (ATTO) with ImageSaver6 software. From the band intensities, IC50 values of peptide inhibitors were calculated by nonlinear regression analysis using Prism (GraphPad Software)."}, "[2]": {"experiment": "CD measurement of helical content", "assay_type": "physicochemical"}, "[3]": {"target": "interaction between SARS-CoV-2 spike RBD and ACE2 (Severe acute respiratory syndrome coronavirus 2, UniProt P0DTC2)", "experiment": "biochemical", "assay_type": "binding", "settings": "n = 3"}},
  "note": "Numbered stars: 1 amine (or outer) side, 2 acyl side, 3 side chain; on linkers, the order of the positions; unused ones are H or OH. Bridge positions count the residues as written; N and C are the ends. Peptide text beside a SMILES is read from it. X1 = O=C(C[*:1])NCCCCCNC(=O)C[*:2]",
  "data": [
    {"molecule": "CC(C)C[C@H](NC(=O)[C@@H]1CSCC(=O)NCCCCCNC(=O)CSC[C@H](NC(=O)[C@H](C)N)C(=O)N[C@@H](Cc2ccccc2)C(=O)N[C@@H](CC(=O)O)C(=O)N[C@@H](CCC(=O)O)C(=O)N[C@@H](Cc2ccc(O)cc2)C(=O)N[C@@H](Cc2c[nH]c3ccccc23)C(=O)N[C@@H](CCC(N)=O)C(=O)N1)C(N)=O", "note": "[HDM2-p13] (H-ACFDEYWQCL-NH2; linker 2-9 via X1)", "values": [
      {"measurement": "IC50", "setting": "[1]; competitive inhibition FP, peptides 50 nM to 50 μM, 100 nM HDM2, 10 nM FAM-ATSP-3848, HBS buffer (10 mM HEPES, 150 mM NaCl, pH 7.5), SD, n = 3", "value": "4.8 ± 0.6", "unit": "µM"},
      {"measurement": "inhibition of FAM-ATSP-3848 binding to HDM2 (in words)", "setting": "[1]", "value": "inhibited the high-affinity binding"},
      {"measurement": "helical content", "setting": "[2]; CD, 25% TFE, 30 µM peptide, HBS buffer (10 mM HEPES, 150 mM NaCl, pH 7.5), calculated by BeStSel web server", "value": 43, "unit": "%"}
    ]},
    {"molecule": "CC(C)C[C@@H]1NC(=O)[C@H](Cc2ccc(O)cc2)NC(=O)[C@H](CC(=O)O)NC(=O)[C@H](Cc2ccccc2)NC(=O)CNC(=O)[C@H](Cc2c[nH]c3ccccc23)NC(=O)[C@@H](NC(=O)[C@@H](N)[C@@H](C)O)CSCC(=O)NCCCCCNC(=O)CSC[C@@H](C(=O)N[C@@H](Cc2c[nH]c3ccccc23)C(N)=O)NC1=O", "note": "[CoV-2-p5] (H-TCWGFDYLCW-NH2; linker 2-9 via X1)", "values": [
      {"measurement": "IC50", "setting": "[3]", "value": "3.8 ± 3.3", "unit": "µM"},
      {"measurement": "helical content", "setting": "[2]; pH 7.5", "value": 12, "unit": "%"}
    ]},
    {"molecule": "CC(C)C[C@H](NC(=O)[C@@H]1CSCC(=O)NCCCCCNC(=O)CSC[C@H](NC(=O)[C@@H]2CCCN2)C(=O)N[C@@H](Cc2ccccc2)C(=O)N[C@@H](Cc2ccc(O)cc2)C(=O)N[C@@H](CC(=O)O)C(=O)N[C@@H](Cc2ccc(O)cc2)C(=O)N[C@@H](Cc2c[nH]c3ccccc23)C(=O)N[C@@H](CCC(N)=O)C(=O)N1)C(N)=O", "note": "[HDM2-opt] (H-PCFYDYWQCL-NH2; linker 2-9 via X1)", "values": [
      {"measurement": "inhibition of FAM-ATSP-3848 binding to HDM2 (in words)", "setting": "[1]", "value": "exhibited effective inhibition"}
    ]},
    {"molecule": "CC(C)C[C@@H]1NC(=O)[C@@H](NC(=O)[C@@H](N)[C@@H](C)O)CSCC(=O)NCCCCCNC(=O)CSC[C@@H](C(=O)N[C@@H](Cc2ccccc2)C(N)=O)NC(=O)[C@H](CCC(=O)O)NC(=O)[C@H](Cc2ccccc2)NC(=O)[C@H](Cc2c[nH]c3ccccc23)NC(=O)[C@H](CO)NC(=O)[C@H](CO)NC1=O", "note": "[CoV-2-p2] (H-TCLSSWFECF-NH2; linker 2-9 via X1)", "values": [
      {"measurement": "IC50", "setting": "[3]", "value": "12.9 ± 4.9", "unit": "µM"},
      {"measurement": "conformational preference (in words)", "setting": "[2]", "value": "prefer a helical conformation"},
      {"measurement": "helical content", "setting": "[2]; pH 7.5", "value": 45, "unit": "%"}
    ]}
  ]
}
